Test results published in patent US11198713B2, “Agents modulating beta-catenin functions and methods thereof” (FOG PHARMACEUTICALS, INC., priority 2017, dated 2021).
≈ marks a conversion by molar mass, not a printed value. Where two headings read alike, the source gives them in different places. Numbered stars: 1 amine (or outer) side, 2 acyl side, 3 side chain; on linkers, the order of the positions; unused ones are H or OH. Bridge positions count the residues as written; N and C are the ends. Square brackets hold non-standard residues; d marks the D form. Peptide text beside a SMILES is read from it. X8 = CN(CC=[*:3])CCC[C@](C)(N[*:1])C(=O)[*:2]; X6 = CN(CC=[*:3])CC[C@](C)(N[*:1])C(=O)[*:2]; X4 = O=C([C@]1(N[*:1])CCN(CC=[*:3])C1)[*:2]; X5 = C[C@](CCCCCC=[*:3])(N[*:1])C(=O)[*:2]; X9 = C[C@](CCC=[*:3])(N[*:1])C(=O)[*:2]; R8 = C=CCCCCCC[C@@](C)(N)C(=O)O; R5 = C=CCCC[C@@](C)(N)C(=O)O

Assays:
[1] = molecular target: T1, full-length beta-catenin (Axin site) (Homo sapiens, UniProt P35222); experiment: Competition fluorescence polarization assay (Axin site probe); type: binding; conditions: competition fluorescence polarization, Table 2; read-out: in vitro FP EC50
T1 construct: 15 nM full-length beta-catenin, 20 nM FITC labeled peptide in buffer
T1 sequence (P35222 1-781): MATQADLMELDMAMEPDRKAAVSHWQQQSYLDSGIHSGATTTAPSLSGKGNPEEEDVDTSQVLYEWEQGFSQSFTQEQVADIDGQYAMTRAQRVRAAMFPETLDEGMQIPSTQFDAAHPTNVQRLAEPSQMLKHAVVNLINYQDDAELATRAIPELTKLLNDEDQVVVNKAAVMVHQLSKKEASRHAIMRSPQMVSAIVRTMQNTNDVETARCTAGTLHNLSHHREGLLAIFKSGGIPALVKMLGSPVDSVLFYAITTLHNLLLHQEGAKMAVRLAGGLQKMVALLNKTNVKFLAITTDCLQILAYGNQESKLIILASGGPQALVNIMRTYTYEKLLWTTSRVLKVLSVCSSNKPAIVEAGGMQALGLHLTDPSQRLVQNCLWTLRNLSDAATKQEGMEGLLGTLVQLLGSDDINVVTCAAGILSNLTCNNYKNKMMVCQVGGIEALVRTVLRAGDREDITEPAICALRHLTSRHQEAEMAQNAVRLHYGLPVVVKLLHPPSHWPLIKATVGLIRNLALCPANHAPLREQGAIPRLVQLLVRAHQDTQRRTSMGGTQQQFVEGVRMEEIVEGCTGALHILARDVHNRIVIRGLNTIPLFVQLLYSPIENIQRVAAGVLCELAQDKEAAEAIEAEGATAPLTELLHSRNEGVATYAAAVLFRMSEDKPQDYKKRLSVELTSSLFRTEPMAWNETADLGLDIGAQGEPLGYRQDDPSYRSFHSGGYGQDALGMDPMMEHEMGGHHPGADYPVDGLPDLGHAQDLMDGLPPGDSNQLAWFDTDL
Procedure, shortened: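 Competition FP: 15 nM full-length β-catenin pre-incubated 5 min with 20 nM FITC-labelled stapled Axin-site peptide, then titrated peptide added (3-fold series from 5 μM) for 15 min in the dark. Buffer 50 mM Tris pH 8.0, 250 mM NaCl, 2% glycerol, 0.5 mM EDTA; duplicate reads.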

[2] = Solubility in DPBS (A280 of supernatant); type: physicochemical; conditions: DPBS
Method: Suitable assays for assessing solubility are widely known in the art and can be utilized in accordance with the present disclosure. In some embodiments, in an exemplary protocol, dried peptide was reconstituted in DPBS (DPBS, 1×, cell culture grade, Sigma D8537) in triplicate, vortexed, sonicated and then centrifuged. Absorbance of the supernatant was measured at A280 (Nanodrop 2000) and the concentration was determined using the extinction coefficient for tryptophan. Exemplary solubility data are presented in, e.g., Table 2.

[3] = Table 3 Part B, amino-stapled product, read-out: Solubility in DPBS

SMILES	EC50 [1] [nM]	Solubility in DPBS ([2]; Table 3 Part A)	solubility ([2]; Table 2, read-out: Solubility) [µM]	solubility [2, 3] [µM]	solubility ([2]; Table 3 Part A, read-out: Solubility in DPBS) [µM]
CC[C@H](C)[C@@H]1NC(=O)[C@H](Cc2c[nH]cn2)NC(=O)[C@H](C)NC(=O)[C@H](CC(=O)O)NC(=O)[C@H](CC(C)C)NC(=O)[C@H]([C@@H](C)CC)NC(=O)[C@](C)(NC(=O)[C@H](C)NC(C)=O)CCCC=CCOC(=O)N(C)CCC[C@@](C)(C(=O)N[C@@H](CCCNC(=N)N)C(=O)N[C@H](C(=O)N[C@@H](Cc2c[nH]c3ccccc23)C(N)=O)C(C)C)NC1=O (single isomer, unassigned) [FP0510c Isomer 1, Ac-A-R5-I-L-D-A-H-I-MH-R-V-W-NH2]	< 100	65 (Isomer 1) μM	–	–	–
CC[C@H](C)[C@@H]1NC(=O)[C@H](Cc2c[nH]cn2)NC(=O)[C@H](C)NC(=O)[C@H](CC(=O)O)NC(=O)[C@H](CC(C)C)NC(=O)[C@H]([C@@H](C)CC)NC(=O)[C@](C)(NC(=O)[C@H](C)NC(C)=O)CCCC=CCOC(=O)N(C)CCC[C@@](C)(C(=O)N[C@@H](CCCNC(=N)N)C(=O)N[C@H](C(=O)N[C@@H](Cc2c[nH]c3ccccc23)C(N)=O)C(C)C)NC1=O (single isomer, unassigned) [FP0510c Isomer 2, Ac-A-R5-I-L-D-A-H-I-MH-R-V-W-NH2]	< 100	31 (Isomer 2) μM	–	–	–
CC[C@H](C)[C@@H]1NC(=O)[C@H](Cc2c[nH]cn2)NC(=O)[C@H](C)NC(=O)[C@H](CC(=O)O)NC(=O)[C@H](CC(C)C)NC(=O)[C@H]([C@@H](C)CC)NC(=O)[C@](C)(NC(=O)[C@H](C)NC(C)=O)CCCCCCC=CCN2CC[C@@](C(=O)N[C@@H](CCCNC(=N)N)C(=O)N[C@H](C(=O)N[C@@H](Cc3c[nH]c4ccccc34)C(N)=O)C(C)C)(C2)NC1=O [FP0217a, Ac-A-R8-I-L-D-A-H-I-MB-R-V-W-NH2] (Ac-A[R8]ILDAHI[X4]RVW-NH2; staple 2-9)	> 5000	–	111 (≈ 171 µg/mL)	111 (≈ 171 µg/mL)	–
CC[C@H](C)[C@@H]1NC(=O)[C@H](Cc2c[nH]cn2)NC(=O)[C@H](C)NC(=O)[C@H](CC(=O)O)NC(=O)[C@H](CC(C)C)NC(=O)[C@H]([C@@H](C)CC)NC(=O)[C@](C)(NC(=O)[C@H](C)NC(=O)CCN)CCCCCCC=CCOC(=O)N2CC[C@@](C(=O)N[C@@H](CCCNC(=N)N)C(=O)N[C@H](C(=O)N[C@@H](Cc3c[nH]c4ccccc34)C(N)=O)C(C)C)(C2)NC1=O [FP0217c_bAfree, bA-A-R8-I-L-D-A-H-I-MB-R-V-W-NH2]	< 100	–	155 (≈ 250 µg/mL)	–	–
CC[C@H](C)[C@@H]1NC(=O)[C@H](Cc2c[nH]cn2)NC(=O)[C@H](C)NC(=O)[C@H](CC(=O)O)NC(=O)[C@H](CC(C)C)NC(=O)[C@H]([C@@H](C)CC)NC(=O)[C@](C)(NC(C)=O)CCCCCCC=CCOC(=O)N2CC[C@@](C(=O)N[C@@H](CCCNC(=N)N)C(=O)N[C@H](C(=O)N[C@@H](Cc3c[nH]c4ccccc34)C(N)=O)C(C)C)(C2)NC1=O [FP0220c, Ac-R8-I-L-D-A-H-I-MB-R-V-W-NH2]	< 100	–	14 (≈ 21.2 µg/mL)	–	–
CC[C@H](C)[C@@H]1NC(=O)[C@H](Cc2c[nH]cn2)NC(=O)[C@H](C)NC(=O)[C@H](CC(=O)O)NC(=O)[C@H](CC(C)C)NC(=O)[C@H]([C@@H](C)CC)NC(=O)[C@](C)(NC(=O)[C@H](C)NC(C)=O)CCCCCC=CCN(C)CC[C@@](C)(C(=O)N[C@@H](CCCNC(=N)N)C(=O)N[C@H](C(=O)N[C@@H](Cc2c[nH]c3ccccc23)C(N)=O)C(C)C)NC1=O [FP0503a, Ac-A-R7-I-L-D-A-H-I-MF-R-V-W-NH2] (Ac-A[X5]ILDAHI[X6]RVW-NH2; staple 2-9)	100 to 500	–	236 (≈ 364 µg/mL)	236 (≈ 364 µg/mL)	–
CC[C@H](C)[C@@H]1NC(=O)[C@H](Cc2c[nH]cn2)NC(=O)[C@H](C)NC(=O)[C@H](CC(=O)O)NC(=O)[C@H](CC(C)C)NC(=O)[C@H]([C@@H](C)CC)NC(=O)[C@](C)(NC(=O)[C@H](C)NC(C)=O)CCCCCC=CCOC(=O)N(C)CC[C@@](C)(C(=O)N[C@@H](CCCNC(=N)N)C(=O)N[C@H](C(=O)N[C@@H](Cc2c[nH]c3ccccc23)C(N)=O)C(C)C)NC1=O [FP0503c, Ac-A-R7-I-L-D-A-H-I-MF-R-V-W-NH2]	100 to 500	–	35 (≈ 55.5 µg/mL)	–	35 (≈ 55.5 µg/mL)

Continued, values first:

EC50 [1] [nM]	Solubility in DPBS ([2]; Table 3 Part A)	solubility ([2]; Table 2, read-out: Solubility) [µM]	solubility [2, 3] [µM]	solubility ([2]; Table 3 Part A, read-out: Solubility in DPBS) [µM]	SMILES
< 100	49 (Isomer 1) μM	–	–	–	CC[C@H](C)[C@@H]1NC(=O)[C@H](Cc2c[nH]cn2)NC(=O)[C@H](C)NC(=O)[C@H](CC(=O)O)NC(=O)[C@H](CC(C)C)NC(=O)[C@H]([C@@H](C)CC)NC(=O)[C@](C)(NC(=O)[C@H](C)NC(C)=O)CCCCC=CCOC(=O)N(C)CCC[C@@](C)(C(=O)N[C@@H](CCCNC(=N)N)C(=O)N[C@H](C(=O)N[C@@H](Cc2c[nH]c3ccccc23)C(N)=O)C(C)C)NC1=O (single isomer, unassigned) [FP0511c Isomer 1, Ac-A-R6-I-L-D-A-H-I-MH-R-V-W-NH2]
< 100	24 (Isomer 2) μM	–	–	–	CC[C@H](C)[C@@H]1NC(=O)[C@H](Cc2c[nH]cn2)NC(=O)[C@H](C)NC(=O)[C@H](CC(=O)O)NC(=O)[C@H](CC(C)C)NC(=O)[C@H]([C@@H](C)CC)NC(=O)[C@](C)(NC(=O)[C@H](C)NC(C)=O)CCCCC=CCOC(=O)N(C)CCC[C@@](C)(C(=O)N[C@@H](CCCNC(=N)N)C(=O)N[C@H](C(=O)N[C@@H](Cc2c[nH]c3ccccc23)C(N)=O)C(C)C)NC1=O (single isomer, unassigned) [FP0511c Isomer 2, Ac-A-R6-I-L-D-A-H-I-MH-R-V-W-NH2]
< 100	–	26 (≈ 41.2 µg/mL)	–	–	CC[C@H](C)[C@@H]1NC(=O)[C@H](Cc2c[nH]cn2)NC(=O)[C@H](C)NC(=O)[C@H](CC(=O)O)NC(=O)[C@H](CC(C)C)NC(=O)[C@H]([C@@H](C)CC)NC(=O)[C@](C)(NC(=O)[C@H](C)NC(C)=O)CCCCCCCCCOC(=O)N2CC[C@@](C(=O)N[C@@H](CCCNC(=N)N)C(=O)N[C@H](C(=O)N[C@@H](Cc3c[nH]c4ccccc34)C(N)=O)C(C)C)(C2)NC1=O [FP0217rc, Ac-A-R8-I-L-D-A-H-I-MB-R-V-W-NH2]
500 to 5000	–	192 (≈ 291 µg/mL)	192 (≈ 291 µg/mL)	–	CC[C@H](C)[C@@H]1NC(=O)[C@H](Cc2c[nH]cn2)NC(=O)[C@H](C)NC(=O)[C@H](CC(=O)O)NC(=O)[C@H](CC(C)C)NC(=O)[C@H]([C@@H](C)CC)NC(=O)[C@](C)(NC(=O)[C@H](C)NC(C)=O)CCC=CCN(C)CCC[C@@](C)(C(=O)N[C@@H](CCCNC(=N)N)C(=O)N[C@H](C(=O)N[C@@H](Cc2c[nH]c3ccccc23)C(N)=O)C(C)C)NC1=O [FP0509a, Ac-A-R4-I-L-D-A-H-I-MH-R-V-W-NH2] (Ac-A[X9]ILDAHI[X8]RVW-NH2; staple 2-9)
500 to 5000	–	165 (≈ 252 µg/mL)	165 (≈ 252 µg/mL)	–	CC[C@H](C)[C@@H]1NC(=O)[C@H](Cc2c[nH]cn2)NC(=O)[C@H](C)NC(=O)[C@H](CC(=O)O)NC(=O)[C@H](CC(C)C)NC(=O)[C@H]([C@@H](C)CC)NC(=O)[C@](C)(NC(=O)[C@H](C)NC(C)=O)CCCC=CCN(C)CCC[C@@](C)(C(=O)N[C@@H](CCCNC(=N)N)C(=O)N[C@H](C(=O)N[C@@H](Cc2c[nH]c3ccccc23)C(N)=O)C(C)C)NC1=O [FP0510a, Ac-A-R5-I-L-D-A-H-I-MH-R-V-W-NH2] (Ac-A[R5]ILDAHI[X8]RVW-NH2; staple 2-9)
